Patent US7601713B2, “Kinase inhibitors and their uses” (Rigel Pharmaceuticals, Inc., priority 2005, dated 2009)
Where two headings read alike, the source gives them in different places.

Key:
tumor cell lines = settings: cited from earlier work; for antiproliferative activity against tumor cell types: in vitro assays, variety of tumor cell lines
Axl kinase = molecular target: T1, Axl kinase (Homo sapiens, UniProt P30530); assay: Phospho-Akt in-cell Western assay (Axl antibody cross-linking, Hela cells); type: cell-based; settings: phospho-Akt readout, read-out: IC50, inhibition of Axl kinase
T1 construct: endogenous in cells; host or cells: HeLa cells
T1 sequence (P30530 26-894): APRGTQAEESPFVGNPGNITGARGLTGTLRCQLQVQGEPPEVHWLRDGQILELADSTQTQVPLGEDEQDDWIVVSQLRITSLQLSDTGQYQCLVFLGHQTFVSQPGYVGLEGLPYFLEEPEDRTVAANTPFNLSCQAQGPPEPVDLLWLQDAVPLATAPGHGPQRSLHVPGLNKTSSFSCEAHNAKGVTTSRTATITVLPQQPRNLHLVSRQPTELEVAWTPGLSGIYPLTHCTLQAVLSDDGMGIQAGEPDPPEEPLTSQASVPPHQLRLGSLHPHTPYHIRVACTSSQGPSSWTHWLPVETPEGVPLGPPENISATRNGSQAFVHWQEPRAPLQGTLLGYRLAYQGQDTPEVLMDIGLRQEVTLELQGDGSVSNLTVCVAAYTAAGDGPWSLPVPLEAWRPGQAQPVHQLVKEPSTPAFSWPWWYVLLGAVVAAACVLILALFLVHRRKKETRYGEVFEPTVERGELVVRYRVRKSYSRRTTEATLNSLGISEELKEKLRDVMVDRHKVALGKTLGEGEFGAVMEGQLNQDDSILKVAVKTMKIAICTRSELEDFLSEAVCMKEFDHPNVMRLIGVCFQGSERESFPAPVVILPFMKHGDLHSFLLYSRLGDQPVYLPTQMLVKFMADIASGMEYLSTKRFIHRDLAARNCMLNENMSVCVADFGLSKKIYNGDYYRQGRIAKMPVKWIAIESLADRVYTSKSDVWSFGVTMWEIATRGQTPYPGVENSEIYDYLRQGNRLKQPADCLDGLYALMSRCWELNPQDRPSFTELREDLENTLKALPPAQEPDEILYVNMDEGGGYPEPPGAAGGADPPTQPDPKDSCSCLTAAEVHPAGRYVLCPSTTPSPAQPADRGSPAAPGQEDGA
Procedure: The compounds of the invention were tested in the following assay for their ability to inhibit Axl activity.
Phospho-Akt in-Cell Western Assay
Starvation medium: For Axl stimulation: 0.5% FCS (fetal calf serum) in DMEM, plus Axl/Fc (extracellular domain of AXL fused to immunoglobulin Fc region) (R&D, 154-AL) 500 ng/mL.
Axl antibody cross-linking: • 1st: Mouse anti-Axl (R&D, MAB 154). • 2nd: Biotin-SP-conjugated AffiniPure goat anti-mouse IgG (H+L) (Jackson ImmunoResearch #115-065-003).
Primary antibody: Rabbit anti-human Phospho-Akt antibody (Cell Signaling 9271): 1×250 diluted in blocking buffer.
Secondary antibody: HRP (horse radish peroxidase)-conjugated Goat anti-Rabbit secondary, stock solution: Jackson lmmunoResearch (Goat anti-Rabbit HRP, #111-035-144) 1:1 diluted in glycerol, store at −20° C. The working solution: 1×2000 dilution of stock in blocking buffer.
A 96 well TC (tissue culture treated) plate was coated with 10 μg/mL poly-L-Lysine at 37° C. for 30 min, washed twice with PBS, and air-dried for 5 minutes before cells were added. Hela cells were seeded at 10,000 cells/well and the cells were starved in 100 μL starvation medium containing Axl/Fc for 24 hrs.
The cells were pre-treated with test compounds by adding 100 μL of 2× test compound to the starvation medium on the cells. The cells were incubated at 37° C. for 1 hr before stimulation.
The cells were stimulated by Axl-antibody cross-linking as follows: A 5× 1st/2nd Axl antibody mixture was made (37.5 μg/mL 1st/100 μg/mL 2nd) in starvation medium and nutated at 4° C. with thorough mixing for 1-2 hours for clustering. The resulting mix was warmed to 37° C. 50 μL of 5× Axl 1st/2nd of antibody cluster was added to the cells and the cells were incubated at 37° C. for 5 min.
After 5 minutes stimulation, the plate was flicked to remove medium and the plate was tapped onto paper towels. Formaldehyde (4.0% in PBS, 100 μL) was added to fix the cells and the cells were incubated at ambient temperature for 20 min without shaking.
The cells were washed with a plate washer buffer to remove the formaldehyde solution. The plate was flicked to remove excess wash buffer and tapped onto paper towels. Quenching buffer (100 μL) was added to each well and the cells were incubated at ambient temperature for 20 minutes without shaking.
The cells were washed with a plate washer buffer to remove the quenching buffer. Blocking buffer (100 μL) was added and the cells were incubated at ambient temperature for at least an hour with gentle shaking.
The cells were washed with a plate washer buffer and diluted primary antibody (50 μL) was added to each well (blocking buffer was added to the negative control wells instead). The plates were incubated overnight at 4° C. with gentle shaking.
The wash buffer was removed, diluted secondary antibody (100 μL) was added, and the cells were incubated at ambient temperature for 1 hour with gentle shaking. During the incubation, the chemiluminescent reagent was brought to ambient temperature.
The secondary antibody was removed by washing the cells 1× with wash buffer, 1× with PBS by plate washer. The PBS was removed from the plate and the chemiluminescent reagent (80 μL: 40 μL A and 40 μL B) was added to each well at ambient temperature.
The resulting chemiluminescence was read with a Luminomitor within 10 minutes to minimize changes in signal intensity. After reading the chemiluminescence, the cells were washed 1× with wash buffer and 1× with PBS by plate washer. The plate was tapped onto paper towels to remove excess liquid from wells and air-dried at ambient temperature for 5 minutes.
Crystal Violet working solution (60 μL) was added to each well and the cells were incubated at ambient temperature for 30 min. The crystal violet solution was removed, and the wells were rinsed with PBS, then washed 3× with PBS (200 μL) for 5 minutes each.
5% SDS solution (70 μL) was added to each well and the cells were incubated on a shaker for 30 min at ambient temperature. […]

[1] = tested on: JAK kinases (JAK1 and JAK3); assay: JAK inhibition: IL-4-stimulated CD23 upregulation in human Ramos B-cells, FACS; type: cell-based; settings: IL-4 stimulated Ramos B-cells, read-out: IC50, inhibition of JAK kinases in cellular assay
Procedure: JAK inhibition was tested in human Ramos B-cells activated with IL-4. Twenty to 24 hours post stimulation, the cells are stained for upregulation of CD23 and analyzed by FACS. Stimulation of the B-cells with IL-4 leads to the activation of the JAK/STAT pathway through phosphorylation of the JAK kinase JAK1 and JAK3, which in turn phosphorylate and activate transcription of factor […].
For the assay, human Ramos B-cells (ATCC, Catalog No. CRL-1596) are cultured in RPMI 1640 medium (Cellgro, Catalog No. 10-040-CM) containing 10% fetal bovine serum (JRH, Catalog No. 12106-500M) according to the propagation protocol supplied with the cells, and maintained at a density of approximately 3.5×10^5 cells/ml. The day before the assay, the cells are diluted to 3.5×10^5 cells/ml to insure they are in the logarithmic growth phase. The cells are spun down, and suspended in RPMI 1640 medium containing 5% fetal bovine serum to a density of 3.5×10^4 cells/ml and aliquots dispensed into a 96-well tissue culture plate. Cells are incubated with test compound (dissolved in DMSO) or DMSO (control) for 1 hr at 37° C. and then stimulated with IL-4 (Pepotech, Catalog No. 200-04) for 20-24 hours (final concentration is 50 Units/ml). Cells are then spun down, stained with anti-CD23-PE antibody (BD Pharmigen, Catalog No. 555711) and analyzed by FACS.

Syk kinase = Syk kinase (Homo sapiens, UniProt P43405); assay: cell-based Syk assay; settings: read-out: IC50, inhibition of Syk kinase

Compound	IC50 (Axl kinase) [µM]	IC50 [1] [µM]	IC50 (Syk kinase) [µM]	other results
Cc1cc(Nc2ncc(F)c(NC3C4C=CC(C4)C3C(N)=O)n2)ccc1N1CCN(C)CC1 [(1S,2S,3R,4R) diastereomer, N4-(3-aminocarbonylbicyclo [2.2.1]hept-5-en-2-yl)-5-fluoro-N2-[3-methyl-4-(4-methylpiperazin-1-yl)phenyl]-2,4-pyrimidinediamine]				IC50s against tumor cell lines (tumor cell lines; isolated stereoisomers): micromolar range
NC(=O)C1C2CC(C1Nc1nc(Nc3ccc(N4CCOCC4)cc3)nc3[nH]ccc13)C1ON=C(c3ccccc3)C21 (racemic) [Compound 219, Racemic-(5-exo,6-exo)-N4-(4,7-methano-1,2-benzisoxazol-3a,4,5,6,7,7a-hexahydro-3-phenyl-5-aminocarbonyl-6-yl)-N2-[4-(4-morpholinyl)phenyl]-1H-pyrrolo[2,3-d]pyrimidine-2,4-diamine]	> 10	< 10	> 10	
CC(C)Oc1cccc(Nc2nc(NC3C4C=CC(C4)C3C(=O)N(C)C)c3nc[nH]c3n2)c1 (racemic) [Compound 140]		< 5	> 10	
Cc1cc(Nc2ncc(F)c(NC3C4C=CC(C4)C3C(N)=O)n2)ccc1N1CCN(C)CC1 (racemic) [cis exo-exo racemate, N4-(3-aminocarbonylbicyclo [2.2.1]hept-5-en-2-yl)-5-fluoro-N2-[3-methyl-4-(4-methylpiperazin-1-yl)phenyl]-2,4-pyrimidinediamine]				potency of exo-exo racemate relative to endo-endo racemate (tumor cell lines; all cell lines tested): approximately twenty-fold; antiproliferative activity against tumor cell types (tumor cell lines): exhibit antiproliferative activity
CSc1cccc(Nc2nc(NC3C4C=CC(C4)C3C(=O)N(C)C)c3nc[nH]c3n2)c1 (racemic) [Compound 143]		< 5	< 10	
Cc1csc2c(NC3C4C=CC(C4)C3C(N)=O)nc(Nc3ccc4[nH]ccc4c3)nc12 (racemic) [Compound 239, Racemic-(2-exo,3-aminocarbonylbicyclo [2.2.1]hept-5-en-2-yl)-N2-[1H-indol-5-yl]-thieno[3,2-d]pyrimidine-2,4-diamine]	> 10	< 5	< 5	
Cc1cc(Nc2ncc(F)c(NC3CCCC3C(N)=O)n2)ccc1N1CCN(C)CC1 [trans (1S,2S) diastereomer, N4-(2-aminocarbonylcyclopent-1-yl)-5-fluoro-N2-[4-(4-methylpiperazin-1-yl)-3-methylphenyl]-2,4-pyrimidinediamine]				antiproliferative activity against tumor cell types (tumor cell lines): relatively inactive; antiproliferative activity against tumor cell types (tumor cell lines; listed as trans(1S,2S)): relatively inactive
CN(C)C(=O)C1C2C=CC(C2)C1Nc1nc(Nc2cccc(S(N)(=O)=O)c2)nc2[nH]cnc12 (racemic) [Compound 144]		< 5	< 10	
COc1ccc(Nc2nc(NC3C4C=CC(C4)C3C(N)=O)c3scc(C)c3n2)cc1 (racemic) [Compound 237, Racemic-(2-exo,3-exo-)-7-methyl-N4-(3-aminocarbonylbicyclo [2.2.1]hept-5-en-2-yl)-N2-[4-methoxyphenyl]-thieno[3,2-d]pyrimidine-2,4-diamine]	> 10	< 5	> 10	
CN(C)C(=O)C1C2C=CC(C2)C1Nc1nc(Nc2ccc(N3CCCCC3)cc2)nc2[nH]cnc12 (racemic) [Compound 145]		< 5	< 10	
COc1cc(Nc2nc(NC3C4C=CC(C4)C3C(N)=O)c3scc(C)c3n2)cc(OC)c1OC (racemic) [Compound 238]	> 10	< 5	> 10	
COc1cccc(Nc2nc(NC3C4C=CC(C4)C3C(=O)N(C)C)c3nc[nH]c3n2)c1 (racemic) [Compound 142]		> 10	< 10	
CN(C)C(=O)C1C2C=CC(C2)C1Nc1nc(Nc2ccc(Cc3ccncc3)cc2)nc2[nH]cnc12 (racemic) [Compound 146]		< 5	< 10	
CNC(=O)COc1cccc(Nc2nc(N[C@H]3[C@@H](C(N)=O)[C@@H]4C=C[C@H]3C4)c3nc[nH]c3n2)c1 [Compound 110]			< 10	IC50 ([1]; unit printed MM): < 10 µM
Cc1cccc(Nc2nc(NC3C4C=CC(C4)C3C(=O)N(C)C)c3nc[nH]c3n2)c1 (racemic) [Compound 141]		< 5	< 10	
COc1cccc(Nc2nc(NC3C4CCC(C4)C3C(=O)NN)c3cc[nH]c3n2)c1 (racemic) [Compound 231, Racemic-(2-exo,3-exo)-N4-(3-hydrazidebicyclo[2.2. 1]hept-2-yl)-N2-(3-methoxyphenyl)-1H-pyrrolo[2,3-d]pyrimidine-2,4-diamine]	< 10	< 5	< 5	
